Assay results reported in patent publication US8242166B2, “C(10) ethyl ester and C(10) cyclopropyl ester substituted taxanes” (Florida State University Research Foundation, Inc., priority 2008, dated 2012).
Where “and” joins values, the source holds several entries; their conditions need not be identical. Equal values may be shown once. Read-outs that look alike come from different tables or passages of the source.

Tests used:
[1] = tested on: SKMES lung tumors; experiment: SKMES xenograft study, i.v. single dose (Example 20); assay type: in vivo, nude mice; settings: 30 mg/kg iv qd × 1
Procedure: This study was conducted at PRC as previously described. SKMES is a human lung cancer cell line. In the present study, compound 2 and all agents were administered as i.v. monotherapies in a single 30 mg/kg dose (qd×1). […] Control mice received this vehicle qd×1. […] The endpoint volume for tumor growth was 1,500 mm^3. The study was terminated on Day 23.

[2] = tested on: human SKMES lung carcinoma xenografts; experiment: SKMES xenograft study e82, i.v. q4d×4 (Example 21); assay type: in vivo, nude mice; settings: 30 mg/kg i.v. q4d×4; five mice
[3] = tested on: MX1 human tumor xenografts
[4] = tested on: human HT29 colon carcinoma xenografts

## CCC(=O)O[C@H]1C(=O)[C@@]2(C)C([C@H](OC(=O)c3ccccc3)[C@]3(O)C[C@H](OC(=O)[C@H](O)[C@@H](NC(=O)OC4CCC4)c4cccs4)C(C)=C1C3(C)C)[C@]1(OC(C)=O)CO[C@@H]1C[C@@H]2O (stereo partly drawn) [Compound 19244]
[1]
  % TGD: 61.94%
  MTV (n), Day 23: 352.00 (5) mm^3
  Median TTE: 23 days
  T-C: 8.8 days
[1]; n=5
  NTR NTRm: 0
  PR (partial regression): 0
  TFS (tumor-free survivor): 1
  TR (treatment-related death): 0
[2]
  TFS: 3
  partial response: two
[3]; 7.5 mg/kg iv qd × 1
  % TGD: −3% and −2.64%
  Median TTE: 16.72 days
  T-C: -0.45 days
  activity (logrank test): nonsignificant activities
[3]; 7.5 mg/kg iv qd × 1, n=5
  CR (complete regression): 0
  NTR (non-treatment-related death): 0
  PR (partial regression): 0
  TFS (tumor-free survivor): 0
  TR (treatment-related death): 0
[3]; 15 mg/kg iv qd × 1
  % TGD: 83% and 83.42%
  Median TTE: 31.49 days
  T-C: 14.32 days
  activity (logrank test): nonsignificant activities
[3]; 15 mg/kg iv qd × 1, n=5
  CR (complete regression): 0
  NTR (non-treatment-related death): 0
  PR (partial regression): 0
  TFS (tumor-free survivor): 0
  TR (treatment-related death): 0
[3]; 30 mg/kg iv qd × 1
  % TGD: 235% and 235.44%
  MTV (n), Day 60: 0.00 (2) mm^3
  Median TTE: 57.59 days
  T-C: 40.42 days
  activity (logrank test): significant activity
[3]; 30 mg/kg iv qd × 1, n=5
  CR (complete regression): 4
  NTR (non-treatment-related death): 0
  PR (partial regression): 1
  TFS (tumor-free survivor): 2
  TR (treatment-related death): 0
  mice survived to D60: two
  transient CRs: 2
[4]; 30 mg/kg i.v. q4d×4, six mice
  LTTFS: 1
  regression responses: six

## CC(=O)O[C@@]12CO[C@@H]1C[C@H](O)[C@@]1(C)C(=O)[C@H](O)C3=C(C)[C@@H](OC(=O)[C@H](O)[C@@H](NC(=O)OC(C)(C)C)c4ccccc4)C[C@@](O)([C@@H](OC(=O)c4ccccc4)[C@H]21)C3(C)C [Docetaxel, docetaxel, reference compound]
[1]
  % TGD: 61.94%
  MTV (n), Day 23: 166.75 (4) mm^3
  Median TTE: 23 days
  T-C: 8.8 days
[1]; n=5
  CR (complete regression): 0
  NTR NTRm: 0
  PR (partial regression): 2
  TFS (tumor-free survivor): 0
  TR (treatment-related death): 0
[3]; 25 mg/kg iv qd × 1
  % TGD: 249.47%
  MTV (n), Day 60: 0.00 (3) mm^3
  Median TTE: 60 days
  T-C: 42.83 days
[3]; 25 mg/kg iv qd × 1, n=5
  CR (complete regression): 3
  NTR (non-treatment-related death): 0
  PR (partial regression): 0
  TFS (tumor-free survivor): 2
  TR (treatment-related death): 0
  mice survived to D60: Three
  transient CR: 1
[4]; 25 mg/kg q7d×3, six mice
  LTTFS: one
  PR responses: 4
[4]; mouse, in vivo
  Number of Death NTR: 0
  Number of Death TR: 0
